Laboratory results as given in patent publication US8697641B2, “4-amino-4-oxobutanoyl peptide cyclic analogues, inhibitors of viral replication” (Achillion Pharmaceuticals, Inc., priority 2008, dated 2014).

Each molecule was assayed on Hepatitis C replicon (assay: HCV replicon assay (NPT ELISA readout) in Huh-7 replicon-containing cells). Settings: Hepatitis C virus, 72 h; HCV replicon in Huh-7 cells, three days incubation.
Type: cell-based, Hepatitis C virus
How it was run: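 Replication is measured as neomycin phosphotransferase level by captured ELISA after three days of compound exposure (typically 10 to 0.03 μM, 6 concentrations) at 37 °C. Cells are Huh-7 harbouring an HCV replicon with neo gene and NS3-NS5B; interferon alpha is the positive control.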
Work on COc1ccc2c(O[C@@H]3C[C@H]4C(=O)N[C@]5(C(=O)NS(=O)(=O)C6CC6)C[C@H]5/C=C\CCCCC[C@H](CC(=O)N5CCN(C(=O)N6CCCC6)CC5)C(=O)N4C3)cc(-c3ccccc3)nc2c1 [Compound 85, (2R,6R,14aR,16aS,Z)-N-(cyclopropylsulfonyl)-2-(7-methoxy-2-phenylquinolin-4-yloxy)-5,16-dioxo-6-(2-oxo-2-(4-(pyrrolidine-1-carbonyl)piperazin-1-yl)ethyl)-1,2,3,5,6,7,8,9,10,11, 13a,14,14a,15,16,16a-hexadecahydrocyclopropa [e]pyrrolo[1,2-a][1,4] diazacyclopentadecine-14a-carboxamide] yielded an EC50 of under 1000 nM.
In the case of CCS(=O)(=O)N1CCN(C(=O)C[C@H]2CCCCC/C=C\[C@@H]3C[C@@]3(C(=O)NS(=O)(=O)C3CC3)NC(=O)[C@@H]3C[C@@H](Oc4cc(-c5ccccc5)nc5cc(OC)ccc45)CN3C2=O)CC1 [Compound 86, (2R,6R,14aR,16aS,Z)-N-(cyclopropylsulfonyl)-6-(2-(4-(ethylsulfonyl)piperazin-1-yl)-2-oxoethyl)-2-(7-methoxy-2-phenylquinolin-4-yloxy)-5,16-dioxo-1,2,3,5,6,7,8,9,10,11, 13a,14,14a,15,16,16a-hexadecahydrocyclopropa [e]pyrrolo[1,2-a][1,4] diazacyclopentadecine-14a-carboxamide], the EC50 is reported as under 1000 nM.
With COc1ccc2c(O[C@@H]3C[C@H]4C(=O)N[C@]5(C(=O)NS(=O)(=O)C6CC6)C[C@H]5/C=C\CCCCC[C@H](CC(=O)N5CCN(c6cnccn6)CC5)C(=O)N4C3)cc(-c3ccccc3)nc2c1 [Compound 87, (2R,6R,14aR,16aS,Z)-N-(cyclopropylsulfonyl)-2-(7-methoxy-2-phenylquinolin-4-yloxy)-5,16-dioxo-6-(2-oxo-2-(4-(pyrazin-2-yl)piperazin-1-yl)ethyl)-1,2,3,5,6,7,8,9,10,11, 13a,14,14a,15,16,16a-hexadecahydrocyclopropa [e]pyrrolo[1,2-a][1,4] diazacyclopentadecine-14a-carboxamide] the EC50 was under 1000 nM.
For COc1ccc2c(O[C@@H]3C[C@H]4C(=O)N[C@]5(C(=O)NS(=O)(=O)C6CC6)C[C@H]5/C=C\CCCCC[C@H](CC(=O)OC(C)(C)C)C(=O)N4C3)cc(-c3ccccn3)nc2c1Cl [Compound 88, tert-butyl 2-((2R,6R,14aR, 16aS,Z)-2-(8-chloro-7-methoxy-2-(pyridin-2-yl)quinolin-4-yloxy)-14a-(cyclopropylsulfonyl-carbamoyl)-5,16-dioxo-1,2,3,5,6,7,8,9,10,11, 13a,14,14a,15,16,16a-hexadecahydrocyclopropa [e]pyrrolo[1,2-a][1,4]diazacyclopentadecin-6-yl)acetate], the EC50 was under 1000 nM.
Work on COc1ccc2c(O[C@@H]3C[C@H]4C(=O)N[C@]5(C(=O)NS(=O)(=O)C6CC6)C[C@H]5/C=C\CCCCC[C@H](CC(=O)O)C(=O)N4C3)cc(-c3ccccn3)nc2c1Cl [Compound 89, 2-((2R,6R,14aR, 16aS,Z)-2-(8-chloro-7-methoxy-2-(pyridin-2-yl)quinolin-4-yloxy)-14a-(cyclopropylsulfonyl-carbamoyl)-5,16-dioxo-1,2,3,5,6,7,8,9,10,11, 13a,14,14a,15,16,16a-hexadecahydrocyclopropa [e]pyrrolo[1,2-a][1,4]diazacyclopentadecin-6-yl)acetic acid] yielded an EC50 of under 1000 nM.
In the case of COc1ccc2c(O[C@@H]3C[C@H]4C(=O)N[C@]5(C(=O)NS(=O)(=O)C6CC6)C[C@H]5/C=C\CCCCC[C@H](CC(=O)N5CCCCC5)C(=O)N4C3)cc(-c3ccccn3)nc2c1Cl [Compound 90, (2R,6R,14aR,16aS,Z)-2-(8-chloro-7-methoxy-2-(pyridin-2-yl)quinolin-4-yloxy)-N-(cyclopropylsulfonyl)-5, 16-dioxo-6-(2-oxo-2-(piperidin-1-yl)ethyl)-1,2,3,5,6,7,8,9,10,11, 13a,14,14a,15,16,16a-hexadecahydrocyclopropa [e]pyrrolo[1,2-a][1,4] diazacyclopentadecine-14a-carboxamide], the EC50 is reported as under 1000 nM.
COc1ccc2c(O[C@@H]3C[C@H]4C(=O)N[C@]5(C(=O)NS(=O)(=O)C6CC6)C[C@H]5/C=C\CCCCC[C@H](CC(=O)N5CCCC(F)(F)C5)C(=O)N4C3)cc(-c3ccccn3)nc2c1Cl [Compound 91, (2R,6R,14aR,16aS,Z)-2-(8-chloro-7-methoxy-2-(pyridin-2-yl)quinolin-4-yloxy)-N-(cyclopropylsulfonyl)-6-(2-(3,3-difluoropiperidin-1-yl)-2-oxoethyl)-5,16-dioxo-1,2,3,5,6,7,8,9,10,11, 13a,14,14a,15,16,16a-hexadecahydrocyclopropa [e]pyrrolo[1,2-a][1,4] diazacyclopentadecine-14a-carboxamide] gave an EC50 of under 1000 nM.
With COc1ccc2c(O[C@@H]3C[C@H]4C(=O)N[C@]5(C(=O)NS(=O)(=O)C6CC6)C[C@H]5/C=C\CCCCC[C@H](CC(=O)N5CCC(C(F)(F)F)CC5)C(=O)N4C3)cc(-c3ccccn3)nc2c1Cl [Compound 92, (2R,6R,14aR,16aS,Z)-2-(8-chloro-7-methoxy-2-(pyridin-2-yl)quinolin-4-yloxy)-N-(cyclopropylsulfonyl)-5,16-dioxo-6-(2-oxo-2-(4-(trifluoromethyl)piperidin-1-yl)ethyl)-1,2,3,5,6,7,8,9,10,11, 13a,14,14a,15,16,16a-hexadecahydrocyclopropa [e]pyrrolo[1,2-a][1,4] diazacyclopentadecine-14a-carboxamide] the EC50 was under 1000 nM.
COc1ccc2c(O[C@@H]3C[C@H]4C(=O)N[C@]5(C(=O)NS(=O)(=O)C6CC6)C[C@H]5/C=C\CCCCC[C@H](CC(=O)N5CCC(F)(F)CC5)C(=O)N4C3)cc(-c3ccccn3)nc2c1Cl [Compound 93, (2R,6R,14aR,16aS,Z)-2-(8-chloro-7-methoxy-2-(pyridin-2-yl)quinolin-4-yloxy)-N-(cyclopropylsulfonyl)-6-(2-(4,4-difluoropiperidin-1-yl)-2-oxoethyl)-5,16-dioxo-1,2,3,5,6,7,8,9,10,11, 13a,14,14a,15,16,16a-hexadecahydrocyclopropa [e]pyrrolo[1,2-a][1,4] diazacyclopentadecine-14a-carboxamide] gave an EC50 of under 1000 nM.
COc1ccc2c(O[C@@H]3C[C@H]4C(=O)N[C@]5(C(=O)NS(=O)(=O)C6CC6)C[C@H]5/C=C\CCCCC[C@H](CC(=O)N5CCC(F)(F)C5)C(=O)N4C3)cc(-c3ccccn3)nc2c1Cl [Compound 94, (2R,6R,14aR,16aS,Z)-2-(8-chloro-7-methoxy-2-(pyridin-2-yl)quinolin-4-yloxy)-N-(cyclopropylsulfonyl)-6-(2-(3,3-difluoropyrrolidin-1-yl)-2-oxoethyl)-5,16-dioxo-1,2,3,5,6,7,8,9,10,11, 13a,14,14a,15,16,16a-hexadecahydrocyclopropa [e]pyrrolo[1,2-a][1,4] diazacyclopentadecine-14a-carboxamide] was tested, and the EC50 was under 1000 nM.
Work on COc1ccc2c(O[C@@H]3C[C@H]4C(=O)N[C@]5(C(=O)NS(=O)(=O)C6CC6)C[C@H]5/C=C\CCCCC[C@H](CC(=O)N5CCCC5C(F)(F)F)C(=O)N4C3)cc(-c3ccccn3)nc2c1Cl (stereo partly drawn) [Compound 95, (2R,6R,14aR,16aS,Z)-2-(8-chloro-7-methoxy-2-(pyridin-2-yl)quinolin-4-yloxy)-N-(cyclopropylsulfonyl)-5,16-dioxo-6-(2-oxo-2-(2-(trifluoromethyl)pyrrolidin-1-yl)ethyl)-1,2,3,5,6,7,8,9,10,11, 13a,14,14a,15,16,16a-hexadecahydrocyclopropa [e]pyrrolo[1,2-a][1,4] diazacyclopentadecine-14a-carboxamide] yielded an EC50 of under 1000 nM.
